Several values for one entry are separate records, joined by “and”; a condition that tells them apart may be missing. Equal entries are not always repeated. Where two headings read alike, the source gives them in different places.
Legend:
[1] = test system: production of Leukotriene B4; test: Rat ex vivo Leukotriene B4 inhibition (oral dosing, blood challenged with A23187); format: in vivo, Rats; conditions: two hours post dose
How it was run: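 Male CD rats (250 g, non-fasted) dosed orally with compound in PEG 400, 5 rats/group; blood drawn by cardiac puncture before and 2 h after dosing. Heparinized blood challenged with A23187 calcium ionophore, 30 min at 37°C; plasma LTB4 measured by radioimmunoassay. % inhibition = post-dose vs pre-dose LTB4 level.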

[2] = test system: production of Leukotriene B4 (LTB4); test: Dog ex vivo Leukotriene B4 inhibition (oral dosing, blood challenged with calcium ionophore); format: in vivo, beagle dogs; conditions: each entry one dog, negative = stimulation of LTB4 production; for % Inhibition 4 hour / % Inhibition 6 hour / % Inhibition 1 hour / % Inhibition 2 hour: 5 mg/Kg; for inhibition at 5 mg/kg: Canis lupus familiaris, po
How it was run: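 Beagle dogs (~10 kg) given compound orally by gavage in PEG 400 at 5 mg/kg; jugular blood drawn pre-dose and at selected post-dose times. Blood challenged with calcium ionophore 30 min at 37°C, plasma LTB4 measured by radioimmunoassay; % inhibition from post-dose versus pre-dose LTB4, one dog per value.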

[3] = test system: production of Leukotriene C4 in mouse peritoneal macrophages; test: In vitro mouse peritoneal macrophage Leukotriene C4 inhibition (zymosan-stimulated, LTC4 radioimmunoassay); format: cell-based; conditions: Zymosan 50 µg/mL
How it was run: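 Adherent peritoneal macrophages from female CD-1 mice were preincubated 15 minutes at 37°C with compound (10, 1 and 0.1 µM, duplicate; DMSO). They were then stimulated with 50 µg/mL zymosan for 1 to 2 hours. Leukotriene C4 released into the medium was measured by radioimmunoassay.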

[4] = 1 h, 1 hour post dose, read-out: % Inhibition 1 hour
[5] = 2 h, 2 hour post dose, read-out: % Inhibition 2 hour
[6] = 4 h, 4 hour post dose, read-out: % Inhibition 4 hour
[7] = 6 h, 6 hour post dose, read-out: % Inhibition 6 hour

Structure (SMILES)	%I ([1]; 50 mg/Kg)	% Inhibition 4 hour ([2]; 4 hour post dose)	% Inhibition 6 hour ([2]; 6 hour post dose)	inhibition at 5 mg/kg [2, 4] [%]	inhibition at 5 mg/kg [2, 5] [%]	inhibition at 5 mg/kg [2, 6] [%]	inhibition at 5 mg/kg [2, 7] [%]	IC50 [3] [nM]	%I ([1]; 5 mg/Kg) [%]	%I ([1]; 10 mg/Kg) [%]	%I ([1]; 20 mg/Kg) [%]	%I ([1]; 25 mg/Kg) [%]	% Inhibition 1 hour ([2]; 1 hour post dose)	% Inhibition 2 hour ([2]; 2 hour post dose)
CC(C)N(O)C(=O)Nc1ccccc1F [Compound 20, 3-(2-fluorophenyl)-1-hydroxy-1-(1-methylethyl)urea]	19%	64%	13%	100	100	57	17	200	–	–	–	–	–	–
COc1ccc(NC(=O)N(O)C(C)C)cc1 [Compound 23, 1-hydroxy-3-(4-methoxyphenyl)-1-(1-methylethyl)urea]	45%	84% and 82% and 59%	15% and 80% and 98% and 56%	100	99	–	–	200	–	–	–	–	–	–
CN(O)C(=O)Nc1cccc(S(C)(=O)=O)c1 [Compound 59, 1-Hydroxy-1-methyl-3-[3-(methylsulfonyl)phenyl]urea]	65% and 87%	83% and 75% and 78%	37% and 55% and 93% and 76%	100	99	–	–	300	9	23	20	49	–	–
CC(C)N(O)C(=O)Nc1ccccc1Cl [Compound 24, 3-(2-chlorophenyl)-1-hydroxy-1-(1-methylethyl)urea]	29%	14%	-21% and -24%	99	73	7	–	200	–	–	–	–	100%	84%
COc1cccc(NC(=O)N(C)O)c1 [Compound 5, 1-hydroxy-3-(3-methoxyphenyl)-1-methylurea]	82%	99% and 44%	20% and 50%	100	–	–	–	200	–	–	–	–	–	75%
CN(O)C(=O)Nc1ccccc1 [Compound 10, 1-hydroxy-1-methyl-3-phenylurea]	41%	34%	42%	100	100	49	52	< 1000	–	–	–	23	–	–
CC(C)N(O)C(=O)Nc1ccccc1 [Compound 17, 1-hydroxy-1-(1-methylethyl)-3-phenylurea]	26%	70%	64% and 43%	100	98	–	–	600	–	–	–	–	–	–
CC(C)CN(O)C(=O)Nc1ccccc1 [Compound 54, 1-Hydroxy-1-(2-methylpropyl)-3-phenylurea]	42%	–	–	99	97	33	43	1300	–	–	–	–	–	–
Cc1cccc(NC(=O)N(O)C(C)C)c1 [Compound 21, 1-hydroxy-1-(1-methylethyl)-3-(3-methylphenyl)urea]	–	0% and -37%	24% and -8%	100	95	–	–	100	–	–	–	–	–	88%
CC(C)N(O)C(=O)Nc1ccc(Br)cc1 [Compound 19, 3-(4-bromophenyl)-1-hydroxy-1-(1-methylethyl)urea]	3%	11% and 74%	29% and 65%	100	84	–	–	< 1000	–	–	–	–	–	–
Cc1ccccc1NC(=O)N(O)C(C)C [Compound 25, 1-hydroxy-1-(1-methylethyl)-3-(2-methylphenyl)urea]	45% and 79%	-45% and -78%	9%	100	51	–	7	600	–	13	–	44	98%	57%
CC(C)N(O)C(=O)Nc1ccc(F)cc1 [Compound 18, 3-(4-fluorophenyl)-1-hydroxy-1-(1-methylethyl)urea]	3%	57%	46% and -12%	100	100	49	–	800	–	–	–	–	–	–
CN(O)C(=O)Nc1cccc(Br)c1 [Compound 6, 3-(3-bromophenyl)-1-hydroxy-1-methylurea]	47%	-36% and 27%	-52% and 19%	86	–	–	–	< 100	39	–	–	–	100%	11% and 62%
CSc1ccc(NC(=O)N(C)O)cc1 [Compound 1, 1-Hydroxy-1-methyl-3-[4-(methylthio)phenyl]urea]	87%	–	95%	100	100	100	93	< 1000	18	–	–	–	–	–
CN(O)C(=O)Nc1cccc(F)c1 [Compound 8, 3-(3-fluorophenyl)-1-hydroxy-1-methylurea]	–	27% and 11%	9% and -32%	100	92	–	–	400	29	–	–	–	–	–
CSc1cccc(NC(=O)N(O)C(C)C)c1 [Compound 16, 1-hydroxy-1-(1-methylethyl)-3-[3-(methylthio)phenyl]urea]	–	-8% and -18% and -14% and -80%	-39% and -24% and -186%	100	97	–	–	< 1000	–	–	–	74	–	–
CN(O)C(=O)Nc1cccc([N+](=O)[O-])c1 [Compound 9, 1-hydroxy-1-methyl-3-(3-nitrophenyl)urea]	–	18%	54%	100	–	33	56	700	–	–	–	34	–	34% and 83%
CC(C)CCN(O)C(=O)Nc1ccccc1 [Compound 44, 1-hydroxy-1-(3-methylbutyl)-3-phenylurea]	18%	-19% and 12%	-19% and 30%	–	–	–	–	< 1000	–	–	–	–	80% and 52%	11% and 5%
Cc1cccc(NC(=O)N(C)O)c1 [Compound 7, 1-hydroxy-1-methyl-3-(3-methylphenyl)urea]	–	56%	-21% and 48%	100	100	70	–	< 1000	32	–	–	–	–	99%
